# Test results taken from patent US20200405697A1, “Antitumor Agent” (Taiho Pharmaceutical Co., Ltd, priority 2017, published 2020).
# pIC50: −log10 of the molar value.
# Target: T1, human RNR (histidine tagged human M1 and human M2 proteins) (Homo sapiens, UniProt P23921)
# T1 construct: made in house; host or cells: Escherichia coli
# T1 sequence (P23921 1-792): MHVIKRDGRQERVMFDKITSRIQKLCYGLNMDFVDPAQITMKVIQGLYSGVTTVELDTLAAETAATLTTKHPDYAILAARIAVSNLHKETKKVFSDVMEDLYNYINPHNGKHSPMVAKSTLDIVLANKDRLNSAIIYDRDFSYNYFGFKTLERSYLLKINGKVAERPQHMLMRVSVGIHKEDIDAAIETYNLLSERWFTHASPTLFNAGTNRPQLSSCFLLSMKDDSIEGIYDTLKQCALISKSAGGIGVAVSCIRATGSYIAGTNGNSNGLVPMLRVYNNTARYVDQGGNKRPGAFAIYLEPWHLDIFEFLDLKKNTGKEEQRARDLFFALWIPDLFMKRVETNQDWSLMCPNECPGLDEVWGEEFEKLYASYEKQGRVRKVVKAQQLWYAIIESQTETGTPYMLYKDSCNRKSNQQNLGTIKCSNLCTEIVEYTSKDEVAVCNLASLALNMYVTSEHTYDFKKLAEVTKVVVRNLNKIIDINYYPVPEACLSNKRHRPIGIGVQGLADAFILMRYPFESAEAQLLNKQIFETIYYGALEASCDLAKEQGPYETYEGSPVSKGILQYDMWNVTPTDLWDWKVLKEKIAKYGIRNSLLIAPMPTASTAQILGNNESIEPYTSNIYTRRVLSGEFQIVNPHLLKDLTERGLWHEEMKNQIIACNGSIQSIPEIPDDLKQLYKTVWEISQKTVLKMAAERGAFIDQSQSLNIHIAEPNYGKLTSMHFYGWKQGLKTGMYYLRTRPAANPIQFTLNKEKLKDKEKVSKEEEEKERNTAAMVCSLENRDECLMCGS
# Test: Human RNR inhibition effect (dCDP formation from CDP)
# Type: biochemical
# Details: 10 μM CDP, 37° C. for 30 minutes, read-out: RNR inhibitory activity IC50
# In short: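 His-tagged human M1 (isoform 1) and N-terminal 59-aa-truncated M2 (isoform 2), E. coli-expressed, Ni-purified, preincubated 20 min with compound (1% DMSO). Reaction with 10 μM CDP, 2 mM ATP, 0.24 mM NADPH, 6 mM DTT, 4 mM Mg acetate, 100 mM KCl, 50 mM HEPES pH 7.2, 30 min at 37° C. dCDP formed quantified by reverse-phase HPLC after heat stop.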
row,pIC50,Structure (SMILES)
1,6.47,"COc1cc(Cl)ccc1S(=O)(=O)N[C@H](c1n[nH]c(=O)o1)[C@H](C)c1c(F)ccc(-c2cccnc2)c1C [Example 300, 4-chloro-N-((1S,2R)-2-(6-fluoro-2-methyl-3-(pyridin-3-yl)phenyl)-1-(5-oxo-4,5-dihydro-1,3,4-oxadiazol-2-yl)propyl)-2-methoxybenzenesulfonamide]"
2,6.54,"COc1cc(Cl)ccc1S(=O)(=O)N[C@H](c1n[nH]c(=O)o1)[C@H](C)c1c(F)ccc(-c2cc[nH]n2)c1C [Example 301, 4-chloro-N-((1S,2R)-2-(6-fluoro-2-methyl-3-(1H-pyrazol-3-yl)phenyl)-1-(5-oxo-4,5-dihydro-1,3,4-oxadiazol-2-yl)propyl)-2-methoxybenzenesulfonamide]"
3,6.31,"COc1cc(Cl)ccc1S(=O)(=O)N[C@H](c1n[nH]c(=O)o1)[C@H](C)c1c(F)ccc(-c2ccc(Cl)cc2)c1C [Example 302, 4-chloro-N-((1S,2R)-2-(4′-chloro-4-fluoro-2-methyl-[1,1′-biphenyl]-3-yl)-1-(5-oxo-4,5-dihydro-1,3,4-oxadiazol-2-yl)propyl)-2-methoxybenzenesulfonamide]"
4,6.80,"COc1cc(Cl)ccc1S(=O)(=O)N[C@H](c1n[nH]c(=O)o1)[C@H](C)c1c(F)ccc(-c2cn[nH]c2)c1C [Example 303, 4-chloro-N-((1S,2R)-2-(6-fluoro-2-methyl-3-(1H-pyrazol-4-yl)phenyl)-1-(5-oxo-4,5-dihydro-1,3,4-oxadiazol-2-yl)propyl)-2-methoxybenzensulfonamide]"
5,6.80,"COc1cc(Cl)ccc1S(=O)(=O)N[C@H](c1n[nH]c(=O)o1)[C@H](C)c1c(F)ccc(-c2cnn(C(F)F)c2)c1C [Example 304, 4-chloro-N-((1S,2R)-2-(3-(1-(difluoromethyl)-1H-pyrazol-4-yl)-6-fluoro-2-methylphenyl)-1-(5-oxo-4,5-dihydro-1,3,4-oxadiazol-2-yl)propyl)-2-methoxybenzenesulfonamide]"
6,6.62,"COc1cc(Cl)ccc1S(=O)(=O)N[C@H](c1n[nH]c(=O)o1)[C@H](C)c1c(F)ccc(-c2ccn(C)n2)c1C [Example 305, 4-chloro-N-((1S,2R)-2-(6-fluoro-2-methyl-3-(1-methyl-1H-pyrazol-3-yl)phenyl)-1-(5-oxo-4,5-dihydro-1,3,4-oxadiazol-2-yl)propyl)-2-methoxybenzenesulfonamide]"
7,7.05,"COc1cc(Cl)ccc1S(=O)(=O)N[C@H](c1n[nH]c(=O)o1)[C@H](C)c1c(F)ccc(-c2cnn(C)c2)c1C [Example 306, 4-chloro-N-((1S,2R)-2-(6-fluoro-2-methyl-3-(1-methyl-1H-pyrazol-4-yl)phenyl)-1-(5-oxo-4,5-dihydro-1,3,4-oxadiazol-2-yl)propyl)-2-methoxybenzenesulfonamide]"
8,6.74,"COc1cc(Cl)ccc1S(=O)(=O)N[C@H](c1n[nH]c(=O)o1)[C@H](C)c1c(F)ccc(-c2c[nH]nc2C)c1C [Example 308, 4-chloro-N-((1S,2R)-2-(6-fluoro-2-methyl-3-(3-methyl-1H-pyrazol-4-yl)phenyl)-1-(5-oxo-4,5-dihydro-1,3,4-oxadiazol-2-yl)propyl)-2-methoxybenzenesulfonamide]"
9,6.77,"CCn1cc(-c2ccc(F)c([C@@H](C)[C@H](NS(=O)(=O)c3ccc(Cl)cc3OC)c3n[nH]c(=O)o3)c2C)cn1 [Example 310, 4-chloro-N-((1S,2R)-2-(3-(1-ethyl-1H-pyrazol-4-yl)-6-fluoro-2-methylphenyl)-1-(5-oxo-4,5-dihydro-1,3,4-oxadiazol-2-yl)propyl)-2-methoxybenzenesulfonamide]"
10,6.66,"COc1cc(Cl)ccc1S(=O)(=O)N[C@H](c1n[nH]c(=O)o1)[C@H](C)c1c(F)ccc(-c2cnn(C3CC3)c2)c1C [Example 311, 4-chloro-N-((1S,2R)-2-(3-(1-cyclopropyl-1H-pyrazol-4-yl)-6-fluoro-2-methylphenyl)-1-(5-oxo-4,5-dihydro-1,3,4-oxadiazol-2-yl)propyl)-2-methoxybenzenesulfonamide]"
11,6.66,"COc1cc(Cl)ccc1S(=O)(=O)N[C@H](c1n[nH]c(=O)o1)[C@H](C)c1c(F)ccc(-c2cnn(C3CCC3)c2)c1C [Example 312, 4-chloro-N-((1S,2R)-2-(3-(1-cyclobutyl-1H-pyrazol-4-yl)-6-fluoro-2-methylphenyl)-1-(5-oxo-4,5-dihydro-1,3,4-oxadiazol-2-yl)propyl)-2-methoxybenzenesulfonamide]"

# Second part, the compound before the results:
row,Structure (SMILES),pIC50
1,"Cc1ccc(F)c([C@@H](C)[C@H](NS(=O)(=O)c2ccc(Cl)cc2C(=O)NOCc2ccccc2)c2n[nH]c(=O)o2)c1C [Example 282, N-(benzyloxy)-5-chloro-2-(N-((1S,2R)-2-(6-fluoro-2,3-dimethylphenyl)-1-(5-oxo-4,5-dihydro-1,3-oxadiazol-2-yl)propyl)sulfamoyl)benzamide]",6.04
2,"Cc1ccc(F)c([C@@H](C)[C@H](NS(=O)(=O)c2ccc(Cl)c(C(=O)N3CCC(N)C3)n2)c2n[nH]c(=O)o2)c1C (stereo partly drawn) [Example 283, 6-(3-aminopyrrolidine-1-carbonyl)-5-chloro-N-((1S,2R)-2-(6-fluoro-2,3-dimethylphenyl)-1-(5-oxo-4,5-dihydro-1,3,4-oxadiazol-2-yl)propyl)pyridine-2-sulfonamide]",6.82
3,"CC(=O)N1CCOc2c(S(=O)(=O)N[C@H](c3n[nH]c(=O)o3)[C@H](C)c3cccc(C)c3C)ccc(Cl)c21 [Example 284, 4-acetyl-5-chloro-N-((1S,2R)-2-(2,3-dimethylphenyl)-1-(5-oxo-4,5-dihydro-1,3,4-oxadiazol-2-yl)propyl)-3,4-dihydro-2H-benzo[b][1,4]oxazine-8-sulfonamide]",6.25
4,"Cc1ccc(F)c([C@@H](C)[C@H](NS(=O)(=O)c2ccccc2C(=O)NO)c2n[nH]c(=O)o2)c1C [Example 285, 2-(N-((1S,2R)-2-(6-fluoro-2,3-dimethylphenyl)-1-(5-oxo-4,5-dihydro-1,3,4-oxadiazol-2-yl)propyl)sulfamoyl)-N-hydroxybenzamide]",6.51
5,"Cc1ccc(F)c([C@@H](C)[C@H](NS(=O)(=O)c2ccc(Cl)cc2C(=O)NO)c2n[nH]c(=O)o2)c1C [Example 286, 5-chloro-2-(N-((1S,2R)-2-(6-fluoro-2,3-dimethylphenyl)-1-(5-oxo-4,5-dihydro-1,3,4-oxadiazol-2-yl)propyl)sulfamoyl)-N-hydroxybenzamide]",7.15
6,"Cc1ccc(F)c([C@@H](C)[C@H](NS(=O)(=O)c2ccc(Cl)cc2C(N)=S)c2n[nH]c(=O)o2)c1C [Example 287, 5-chloro-2-(N-((1S,2R)-2-(6-fluoro-2,3-dimethylphenyl)-1-(5-oxo-4,5-dihydro-1,3,4-oxadiazol-2-yl)propyl)sulfamoyl)benzothioamide]",7.30
7,"Cc1c(Cl)ccc(F)c1[C@@H](C)[C@H](NS(=O)(=O)c1ccc(Cl)c2c1OCCN2C)c1n[nH]c(=O)o1 [Example 289, 5-chloro-N-((1S,2R)-2-(3-chloro-6-fluoro-2-methylphenyl)-1-(5-oxo-4,5-dihydro-1,3,4-oxadiazol-2-yl)propyl)-4-methyl-3,4-dihydro-2H-benzo[b][1,4]oxazine-8-sulfonamide]",6.89
8,"COc1c(S(=O)(=O)N[C@H](c2n[nH]c(=O)o2)[C@H](C)c2c(F)ccc(C)c2C)ccc(Cl)c1C(C)=O [Example 294, 3-acetyl-4-chloro-N-((1S,2R)-2-(6-fluoro-2,3-dimethylphenyl)-1-(5-oxo-4,5-dihydro-1,3,4-oxadiazol-2-yl)propyl)-2-methoxybenzenesulfonamide]",6.96
9,"Cc1cccc([C@@H](C)[C@H](NS(=O)(=O)c2ccc(Cl)c3c2OCC=C3)c2n[nH]c(=O)o2)c1C [Example 295, 5-chloro-N-((1S,2R)-2-(2,3-dimethylphenyl)-1-(5-oxo-4,5-dihydro-1,3,4-oxadiazol-2-yl)propyl)-2H-chromene-8-sulfonamide]",6.10
10,"COc1ccc(-c2ccc(F)c([C@@H](C)[C@H](NS(=O)(=O)c3ccc(Cl)cc3OC)c3n[nH]c(=O)o3)c2C)cc1 [Example 298, 4-chloro-N-((1S,2R)-2-(4-fluoro-4′-methoxy-2-methyl-[1,1′-biphenyl]-3-yl)-1-(5-oxo-4,5-dihydro-1,3,4-oxadiazol-2-yl)propyl)-2-methoxybenzenesulfonamide]",6.52
11,"COc1cc(Cl)ccc1S(=O)(=O)N[C@H](c1n[nH]c(=O)o1)[C@H](C)c1c(F)ccc(-c2cc(F)cc(F)c2)c1C [Example 299, 4-chloro-2-methoxy-N-((1S,2R)-1-(5-oxo-4,5-dihydro-1,3,4-oxadiazol-2-yl)-2-(3′,4,5′-trifluoro-2-methyl-[1,1′-biphenyl]-3-yl)propyl)benzenesulfonamide]",6.03
